The nature of data set [1]: in vitro. The following applies: human.
Data set [2] in a line: in vitro. The following applies: human. This is another data set of the same source.
The test system of data set [3] is YFV. The data set is described as follows: microbe, parasite or virus in culture. The format is cell-based, Yellow fever virus strain 17D. Conditions: for EC50: read-out: Anti-YFV Activity (Huh-7) EC50; for EC90: read-out: Anti-YFV Activity (Huh-7) EC90.
A short description of data set [4]: in vitro. The following applies: human; for CC50: Cytotoxicity CC50 Huh-7.
The nature of data set [5]: in vitro. Conditions: African green monkey.
For data set [6], the system named is Huh-7 cells. Conditions: human.
Data set [7] relates to primary human hepatocytes.
Data set [8] relates to YFV. Conditions: cited from earlier work.
Data set [9] has as its system YFV. Description: microbe, parasite or virus in culture. Conditions: Yellow fever virus, RD, read-out: EC50, inhibition of YFV replication in RD cells. In kind it is cell-based.
Data set [10] relates to YFV. The data set is described as follows: microbe, parasite or virus in culture. The format is cell-based, Yellow fever virus strain 17D. The following applies: Yellow fever virus, Huh-7, 72 h, read-out: EC50 in 3D cultures.
In another data set the test system is YFV 17D. The following applies: mouse, in vivo.
Data set [11] has as its system YFV. Description: microbe, parasite or virus in culture. The format is cell-based, Yellow fever virus strain 17D. Conditions: Yellow fever virus, Macrophage; for EC50: read-out: EC50, YFV replication in MDM.
Data set [12] relates to Huh-7 cells. Conditions: cited from earlier work.
For data set [13], the system named is primary human hepatocytes. Conditions: cited from earlier work.
Data set [14] can be described thus: in vitro. The following applies: human. The source holds these as a separate data set.
In the next data set the test system is MDM. Conditions: human.
Data set [15] deals with Huh-7 cells. Conditions: human. The source holds these as a separate data set.
For data set [16], the system named is YFV. The following applies: mouse, in vivo; cited from earlier work.
Where [17] appears, read: Yellow fever virus, Huh-7, 72 h.

The structures appear in SMILES notation. Read-outs that look alike come from different tables or passages of the source.

Broadly, the EC50 is the concentration giving half of the maximal effect. As a reminder, the EC90 is the concentration at which the effect reaches the 90% level. On to `O=c1ccn([C@@H]2O[C@H](CO)[C@@H](O)C2(Cl)Cl)c(=O)[nH]1` [Compound 2], for which the CC50 in the data set “in vitro [1]”, in “in vitro [2]”, in “in vitro [4]” and in “in vitro [5]” was over 100 µM throughout. Besides, in the data set on YFV [3] (setting [17]), the EC50 was over 10 µM. Further, the EC90 in the data set on YFV [3] (setting [17]) is over 10 µM. Further, in the data set on Huh-7 cells [6], the “NTP formation in Huh-7 cells” value came out at 0.5 pmol / 10^6 cells.
As for `O=c1ccn([C@@H]2O[C@H](CO)[C@@H](O)[C@]2(F)Br)c(=O)[nH]1` [Compound 8], the CC50 in “in vitro [1]”, in “in vitro [2]”, in “in vitro [4]” and in the data set “in vitro [5]” was over 100 µM in each case. In addition, the EC50 in the data set with YFV [3] (setting [17]) is over 10 µM. Moreover, the EC90 in the data set with YFV [3] (setting [17]) was over 10 µM.
As to `CC(C)OC(=O)[C@H](C)NP(=O)(OC[C@H]1O[C@@H](n2ccc(=O)[nH]c2=O)[C@](F)(Cl)[C@@H]1O)Oc1ccccc1` (some centres unmarked) [Compound 7], the CC50 in the data set “in vitro [1]”, in “in vitro [2]” and in “in vitro [5]” was over 100 µM each time. In the data set on YFV [3] (setting [17]), the EC50 is over 10 µM. Besides, in the data set with YFV [3] (setting [17]), the EC90 was over 10 µM.
As for `CC(C)OC(=O)[C@H](C)NP(=O)(OC[C@H]1O[C@@H](n2ccc(=O)[nH]c2=O)[C@](F)(Br)[C@@H]1O)Oc1ccccc1` (some centres unmarked) [Compound 11], the CC50 in the data set “in vitro [1]”, in the data set “in vitro [2]” and in “in vitro [5]” was over 100 µM in each case. For the same molecule, the EC50 in the data set with YFV [3] (setting [17]) is over 10 µM. Moreover, in the data set with YFV [3] (setting [17]), the EC90 was over 10 µM.
As for `O=c1ccn([C@@H]2O[C@H](CO)[C@@H](O)[C@]2(F)Cl)c(=O)[nH]1` [Compound 4], the CC50 in the data set “in vitro [1]”, in the data set “in vitro [2]”, in “in vitro [4]” and in “in vitro [5]” was over 100 µM in each case. In addition, the concentration for a half-maximal effect (EC50) in the data set with YFV [3] (setting [17]) was over 10 µM. Also, the EC90 in the data set with YFV [3] (setting [17]) is over 10 µM. Moreover, the “NTP formation in Huh-7 cells” value in the data set on Huh-7 cells [6] is listed as 0.5 pmol / 10^6 cells.
With `CC(C)OC(=O)[C@H](C)NP(=O)(OC[C@H]1O[C@@H](n2ccc(=O)[nH]c2=O)[C@@](F)(Cl)[C@@H]1O)Oc1ccccc1` (some centres unmarked) [Compound 5], the “NTP formation in primary human hepatocytes” value in data set [7] was 5245.0 pmol / 10^6 cells. Also, the CC50 in “in vitro [1]”, in “in vitro [2]” and in the data set “in vitro [5]” was over 100 µM in each case. Besides, in the data set on YFV [8], the “Reduction of CPE in RD cell line” value is reported as under 2%. Further, the EC50 in the data set on YFV [3] (setting [17]) was determined as 0.4 ± 0.2 µM; with YFV [9] it was 0.5 ± 0.2 µM. In addition, in the data set with YFV [3] (setting [17]), the EC90 came out at 6.5 ± 2.6 µM. For the same molecule, the “NTP formation in Huh-7 cells” value in the data set with Huh-7 cells [6] is recorded as 866.2 pmol / 10^6 cells.
Regarding `O=c1ccn([C@@H]2O[C@H](CO)[C@@H](O)[C@@]2(F)Cl)c(=O)[nH]1` [Compound 6], the CC50 in “in vitro [1]”, in “in vitro [2]”, in “in vitro [4]” and in “in vitro [5]” was over 100 µM in each case. For the same molecule, the EC50 in the data set on YFV [3] (setting [17]) is over 10 µM. In the data set on YFV [3] (setting [17]), the EC90 was over 10 µM.
In general, viability refers to a per cent measure of how many cells are alive, often set against a control. For the molecule `CC(C)OC(=O)[C@H](C)N[P@](=O)(OC[C@H]1O[C@@H](n2ccc(=O)[nH]c2=O)[C@@](F)(Br)[C@@H]1O)Oc1ccccc1` [Compound 9], the EC50 in the data set on YFV [10] stood at 3.2 µM. Besides, in the data set with YFV 17D, the “Immune cell infiltration into the liver” value is “significantly reduced”, the “Impact on total circulating leukocytes” value is reported as “no adverse impact”, the “Impact on weight loss” value is reported as “no adverse impact” and the “Levels of serum transaminase (ALT)” value is reported as “reduced”. In the data set with YFV 17D, the “Percentage of mice with absent inflammatory cell infiltration in the liver” value is on record as 25%, the “Percentage of mice with mild inflammatory cell infiltration in the liver” value is reported as 50%, the “Percentage of mice with minimum inflammatory cell infiltration in the liver” value is reported as 25% and the “YFV genome copy levels (virus load) in liver” value is “significant reduction”. Further, the CC50 in “in vitro [1]” was over 100 µM. Moreover, the EC50 in the data set with YFV [11] came out at 0.4 ± 0.1 µM. Besides, the EC90 in the data set on YFV [11] (read-out: EC90, YFV replication in MDM) was determined as 1.5 ± 0.6 µM. The “NTP formed in Huh-7 cells” value in the data set with Huh-7 cells [12] is recorded as 646 ± 107 pmol/10^6 cells. Besides, the CC50 in “in vitro [2]” was over 100 µM. For the same molecule, in the data set on YFV [3] (setting [17]), the EC50 came to 0.85 µM and the EC90 came to 7.8 ± 3.6 µM. Also, the EC50 with YFV [3] was determined as 0.9 ± 0.8 µM. The same molecule registered a viability at 100 µM in the data set “in vitro [4]” of 87.1%. Moreover, the CC50 in “in vitro [5]” was over 100 µM. In addition, the “NTP formed in primary hepatocytes” value in [13] is 3206 ± 247 pmol/10^6 cells. Also, in “in vitro [14]”, the viability at 100 µM turned out to be 84.3 ± 0.9%. The “Cytotoxicity in MDM” value with MDM was “no notable cytotoxicity up to 100 µM”.
For the molecule `O=c1ccn([C@@H]2O[C@H](CO)[C@@H](O)[C@@]2(F)Br)c(=O)[nH]1` [Compound 10], the CC50 in “in vitro [1]”, in “in vitro [2]”, in “in vitro [4]” and in “in vitro [5]” was over 100 µM in each case. The EC50 with YFV [3] (setting [17]) is over 10 µM. Besides, the EC90 in the data set with YFV [3] (setting [17]) was over 10 µM.
Take `CC(C)OC(=O)[C@H](C)N[P@](=O)(OC[C@H]1O[C@@H](n2ccc(=O)[nH]c2=O)[C@](C)(F)[C@@H]1O)Oc1ccccc1` [Sofosbuvir, sofosbuvir, reference compound]: the “NTP formation in primary human hepatocytes” value in data set [7] is given as 2230.0 pmol / 10^6 cells. The CC50 is over 100 µM in “in vitro [1]”; over 100 µM in the data set “in vitro [2]”; under 100 µM in the data set “in vitro [4]”; over 100 µM in the data set “in vitro [5]”; 88.5 ± 11.6 µM in the data set with Huh-7 cells [15]. The figures for the EC50 in the data set on YFV [11] and in the data set on YFV [3] (setting [17]) were 0.4 ± 0.3 µM and 0.6 ± 0.6 µM, respectively. In addition, the EC90 in the data set with YFV [3] (setting [17]) turned out to be 3.5 ± 1.5 µM. In the data set with Huh-7 cells [6], the “NTP formation in Huh-7 cells” value amounted to 317.2 pmol / 10^6 cells. In addition, in the data set on YFV [16], the “Viral burden in sera, livers, kidneys and spleens” value was “failed to reduce viral burden”.
As for `CC(C)OC(=O)[C@H](C)NP(=O)(OC[C@H]1O[C@@H](n2ccc(=O)[nH]c2=O)C(Cl)(Cl)[C@@H]1O)Oc1ccccc1` (some centres unmarked) [Compound 3], the “NTP formation in primary human hepatocytes” value in data set [7] was 622.0 pmol / 10^6 cells. In addition, the CC50 in the data set “in vitro [1]”, in “in vitro [2]”, in the data set “in vitro [4]” and in the data set “in vitro [5]” was over 100 µM each time. For the same molecule, the EC50 in the data set on YFV [3] (setting [17]) amounted to 0.4 ± 0.5 µM. For the same molecule, the EC90 with YFV [3] (setting [17]) came out at 3.2 ± 2.7 µM. The “NTP formation in Huh-7 cells” value with Huh-7 cells [6] stood at 39.7 pmol / 10^6 cells.

Values taken from paper PMC9694579 (Microorganisms, 2022).
